In patent publication US10758534B2 (Vertex Pharmaceuticals Incorporated, priority 2014, dated 2020):

Target: T1, F508del (Homo sapiens, UniProt P13569, DEL508-508)
T1 construct: expressed in transfected cells
Experiment: Protocol 2: FRET membrane potential optical assay (VIPR), identification of correction compounds
Format: cell-based
Details: Table 3; compounds of Table 1 as modulators of CFTR activity; protocol not stated
How it was run: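 NIH3T3 mouse fibroblasts stably expressing F508del-CFTR incubated with compound 16 h at 37 °C in serum-free medium, then loaded with CC2-DMPE/DiSBAC2(3) FRET dyes. Channel activated with 10 μM forskolin plus 20 μM genistein in Cl⁻-free (gluconate) bath; depolarisation from Cl⁻ efflux read on VIPR II.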

T1 sequence (P13569 with tags, fused parts or gaps DEL508-508): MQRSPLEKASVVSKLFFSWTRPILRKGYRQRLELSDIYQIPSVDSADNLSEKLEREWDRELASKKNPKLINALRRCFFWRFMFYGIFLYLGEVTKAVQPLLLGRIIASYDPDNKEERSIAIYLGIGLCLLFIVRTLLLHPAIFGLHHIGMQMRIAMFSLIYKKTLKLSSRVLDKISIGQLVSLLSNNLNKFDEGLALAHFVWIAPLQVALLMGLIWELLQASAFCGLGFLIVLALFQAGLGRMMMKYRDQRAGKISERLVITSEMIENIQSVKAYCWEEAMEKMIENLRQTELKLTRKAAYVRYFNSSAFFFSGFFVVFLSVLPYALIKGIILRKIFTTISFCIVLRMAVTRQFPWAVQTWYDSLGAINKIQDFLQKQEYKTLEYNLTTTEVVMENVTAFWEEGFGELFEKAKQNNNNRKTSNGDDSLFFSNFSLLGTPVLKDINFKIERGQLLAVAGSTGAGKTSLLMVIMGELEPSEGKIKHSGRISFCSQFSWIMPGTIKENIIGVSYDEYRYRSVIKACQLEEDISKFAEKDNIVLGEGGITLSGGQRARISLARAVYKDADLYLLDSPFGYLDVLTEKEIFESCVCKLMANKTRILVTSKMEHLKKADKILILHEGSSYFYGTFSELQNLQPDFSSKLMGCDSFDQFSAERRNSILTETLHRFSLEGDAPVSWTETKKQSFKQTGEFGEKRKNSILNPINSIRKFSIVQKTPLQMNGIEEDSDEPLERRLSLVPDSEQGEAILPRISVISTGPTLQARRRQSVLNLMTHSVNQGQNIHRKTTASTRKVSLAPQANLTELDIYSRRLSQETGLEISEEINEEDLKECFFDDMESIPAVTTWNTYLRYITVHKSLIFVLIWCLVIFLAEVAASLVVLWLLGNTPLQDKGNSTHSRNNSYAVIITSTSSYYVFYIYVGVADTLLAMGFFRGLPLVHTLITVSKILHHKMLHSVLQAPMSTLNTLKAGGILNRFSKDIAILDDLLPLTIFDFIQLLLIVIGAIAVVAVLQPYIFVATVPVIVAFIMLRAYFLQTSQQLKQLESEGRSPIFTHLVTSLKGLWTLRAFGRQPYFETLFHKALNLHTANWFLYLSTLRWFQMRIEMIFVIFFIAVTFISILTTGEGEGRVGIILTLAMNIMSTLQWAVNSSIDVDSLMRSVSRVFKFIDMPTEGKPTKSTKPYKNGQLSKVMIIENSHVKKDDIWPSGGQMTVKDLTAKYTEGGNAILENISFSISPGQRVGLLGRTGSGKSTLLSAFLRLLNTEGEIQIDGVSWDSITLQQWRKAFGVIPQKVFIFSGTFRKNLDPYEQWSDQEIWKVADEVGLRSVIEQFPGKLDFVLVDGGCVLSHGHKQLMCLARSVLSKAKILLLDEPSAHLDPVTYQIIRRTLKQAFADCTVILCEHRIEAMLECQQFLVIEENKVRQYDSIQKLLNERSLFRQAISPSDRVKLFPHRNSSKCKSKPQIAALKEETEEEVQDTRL

| SMILES | EC30 |
| --- | --- |
| COc1ncc(-c2ccc(C(=O)NS(=O)(=O)c3cccc(N)n3)c(Oc3c(C)cc(C)cc3C)n2)cc1F [Compound 612, N-[(6-amino-2-pyridyl)sulfonyl]-6-(5-fluoro-6-methoxy-3-pyridyl)-2-(2,4,6-trimethylphenoxy)pyridine-3-carboxamide] | +++ (“+++” means <3 uM) |
| CC(C)COc1cc(F)cc(-c2ccc(C(=O)NS(=O)(=O)c3cccc(N)n3)c(N3CCCC3C(C)(C)C)n2)c1 (stereo not shown) [Compound 613, N-[(6-amino-2-pyridyl)sulfonyl]-2-(2-tert-butylpyrrolidin-1-yl)-6-(3-fluoro-5-isobutoxy-phenyl)pyridine-3-carboxamide] | +++ (“+++” means <3 uM) |
| Cc1ccc(-c2ccc(C(=O)NS(=O)(=O)c3cccc(N)n3)c(N3CC(C)CC3(C)C)n2)c(C)c1 (stereo not shown) [Compound 614, N-[(6-amino-2-pyridyl)sulfonyl]-6-(2,4-dimethylphenyl)-2-(2,2,4-trimethylpyrrolidin-1-yl)pyridine-3-carboxamide] | +++ (“+++” means <3 uM) |
| CCC1CCN(c2nc(-c3cc(F)cc(OCC(C)C)c3)ccc2C(=O)NS(=O)(=O)c2cccc(N)n2)CC1 [Compound 615, N-[(6-amino-2-pyridyl)sulfonyl]-2-(4-ethyl-1-piperidyl)-6-(3-fluoro-5-isobutoxy-phenyl)pyridine-3-carboxamide] | +++ (“+++” means <3 uM) |
| Cc1nc(OCC(C)C)ccc1-c1ccc(C(=O)NS(=O)(=O)c2cccc(N)n2)c(N2CC(C)CC2(C)C)n1 (stereo not shown) [Compound 616, N-[(6-amino-2-pyridyl)sulfonyl]-6-(6-isobutoxy-2-methyl-3-pyridyl)-2-(2,2,4-trimethylpyrrolidin-1-yl)pyridine-3-carboxamide] | +++ (“+++” means <3 uM) |
| CC1CC(C)CN(c2nc(C(C)(C)C)ccc2C(=O)NS(=O)(=O)c2cccc(N)n2)C1 (stereo not shown) [Compound 617, N-[(6-amino-2-pyridyl)sulfonyl]-6-tert-butyl-2-(3,5-dimethyl-1-piperidyl)pyridine-3-carboxamide] | +++ (“+++” means <3 uM) |
| CCC1(COc2nc(-c3cc(F)cc(OCC(C)C)c3)ccc2C(=O)NS(=O)(=O)c2cccc(N)n2)COC1 [Compound 618, N-[(6-amino-2-pyridyl)sulfonyl]-2-[(3-ethyloxetane-3-yl)methoxy]-6-(3-fluoro-5-isobutoxy-phenyl)pyridine-3-carboxamide] | ++ (“++” means between 3 uM and 10 uM) |
| CCC1CCN(c2nc(-c3ccc(OC(C)C)nc3)ccc2C(=O)NS(=O)(=O)c2cccc(N)n2)CC1 [Compound 619, N-[(6-amino-2-pyridyl)sulfonyl]-2-(4-ethyl-1-piperidyl)-6-(6-isopropoxy-3-pyridyl)pyridine-3-carboxamide] | +++ (“+++” means <3 uM) |
| CC(C)COc1cc(F)cc(-c2ccc(C(=O)NS(=O)(=O)c3ccccc3)c(N3CC(C)CC3(C)C)n2)c1 (stereo not shown) [Compound 620, N-(benzenesulfonyl)-6-(3-fluoro-5-isobutoxy-phenyl)-2-(2,2,4-trimethylpyrrolidin-1-yl)pyridine-3-carboxamide] | +++ (“+++” means <3 uM) |

The remaining lines, values ahead:

| EC30 | SMILES |
| --- | --- |
| +++ (“+++” means <3 uM) | Cc1cc(C)c(Oc2nc(C3(C(F)(F)F)CC3)ccc2C(=O)NS(=O)(=O)c2cccc(N)n2)c(C)c1 [Compound 621, N-[(6-amino-2-pyridyl)sulfonyl]-6-[1-(trifluoromethyl)cyclopropyl]-2-(2,4,6-trimethylphenoxy)pyridine-3-carboxamide] |
| +++ (“+++” means <3 uM) | Cc1cc(C)c(Oc2nc(-c3ccc(F)cc3O)ccc2C(=O)NS(=O)(=O)c2cccc(N)n2)c(C)c1 [Compound 622, N-[(6-amino-2-pyridyl)sulfonyl]-6-(4-fluoro-2-hydroxy-phenyl)-2-(2,4,6-trimethylphenoxy)pyridine-3-carboxamide] |
| ++ (“++” means between 3 uM and 10 uM) | Cc1ccc(-c2nc(C(C)(C)C)ccc2C(=O)NS(=O)(=O)c2ccccc2C#N)cc1 [Compound 623, 6-tert-butyl-N-(2-cyanophenyl)sulfonyl-2-(p-tolyl)pyridine-3-carboxamide] |
| ++ (“++” means between 3 uM and 10 uM) | COc1cc(-c2ccc(C(=O)NS(=O)(=O)c3ccc[nH]c3=O)c(Oc3c(C)cc(C)cc3C)n2)ccc1F [Compound 624, 6-(4-fluoro-3-methoxy-phenyl)-N-[(2-oxo-1H-pyridin-3-yl)sulfonyl]-2-(2,4,6-trimethylphenoxy)pyridine-3-carboxamide] |
| +++ (“+++” means <3 uM) | CC(C)Oc1ccc(-c2ccc(C(=O)NS(=O)(=O)c3cccc(N)n3)c(N3CCC(c4ccccc4)C3C)n2)cn1 (stereo not shown) [Compound 625, N-[(6-amino-2-pyridyl)sulfonyl]-6-(6-isopropoxy-3-pyridyl)-2-(2-methyl-3-phenyl-pyrrolidin-1-yl)pyridine-3-carboxamide] |
| +++ (“+++” means <3 uM) | CC(C)(C)c1ccc(C(=O)NS(=O)(=O)c2cccc(N)n2)c(N2CCC[C@H](c3ccccc3)C2)n1 [Compound 626, N-[(6-amino-2-pyridyl)sulfonyl]-6-tert-butyl-2-[(3R)-3-phenyl-1-piperidyl]pyridine-3-carboxamide] |
| + (“+” means greater than 10 uM) | Cc1cc(C)c(Cn2c(C(=O)NS(=O)(=O)c3ccnc(N)c3)cc3ccccc32)c(C)c1 [Compound 627, N-[(2-amino-4-pyridyl)sulfonyl]-1-[(2,4,6-trimethylphenyl)methyl]indole-2-carboxamide] |
| +++ (“+++” means <3 uM) | Cc1cc(C)c(CN2CCc3ccccc3CC2C(=O)NS(=O)(=O)c2cc[nH]n2)c(C)c1 (stereo not shown) [Compound 628, N-(1H-pyrazol-3-ylsulfonyl)-3-[(2,4,6-trimethylphenyl)methyl]-1,2,4,5-tetrahydro-3-benzazepine-4-carboxamide] |
| +++ (“+++” means <3 uM) | COc1cc(C)cc(OC)c1-c1ccc(C(=O)NS(=O)(=O)c2cccc(N)n2)c(Oc2c(C)cc(C)cc2C)n1 [Compound 629, N-[(6-amino-2-pyridyl)sulfonyl]-6-(2,6-dimethoxy-4-methyl-phenyl)-2-(2,4,6-trimethylphenoxy)pyridine-3-carboxamide] |
| +++ (“+++” means <3 uM) | CC(C)c1ccc(-c2ccc(C(=O)NS(=O)(=O)c3cccc(N)n3)c(N3C[C@@H](C)CC3(C)C)n2)cc1 [Compound 630, N-[(6-amino-2-pyridyl)sulfonyl]-6-(4-isopropylphenyl)-2-[(4S)-2,2,4-trimethylpyrrolidin-1-yl]pyridine-3-carboxamide] |
| +++ (“+++” means <3 uM) | CC(C)Cn1cc(-c2ccc(C(=O)NS(=O)(=O)c3cccc(N)n3)c(N3CC(C)CC3(C)C)n2)cn1 (stereo not shown) [Compound 631, N-[(6-amino-2-pyridyl)sulfonyl]-6-(1-isobutylpyrazol-4-yl)-2-(2,2,4-trimethylpyrrolidin-1-yl)pyridine-3-carboxamide] |
| ++ (“++” means between 3 uM and 10 uM) | Cc1ccc(-c2nc(C(C)(C)C)ccc2C(=O)NS(=O)(=O)c2ccn[nH]2)cc1 [Compound 632, 6-tert-butyl-2-(p-tolyl)-N-(1H-pyrazol-5-ylsulfonyl)pyridine-3-carboxamide] |
| +++ (“+++” means <3 uM) | Cc1cc(C)c(Oc2nc(-n3nc(C(F)(F)F)cc3C)ccc2C(=O)NS(=O)(=O)c2cccc(N)n2)c(C)c1 [Compound 633, N-[(6-amino-2-pyridyl)sulfonyl]-6-[5-methyl-3-(trifluoromethyl)pyrazol-1-yl]-2-(2,4,6-trimethylphenoxy)pyridine-3-carboxamide] |
